Data reported in paper PMC4216499 (The Indian Journal of Medical Research, 2014).
Values joined by “and” are separate entries in the source; they are usually repeats but may differ in a detail not shown here. Identical values can stand only once.

How the values were obtained:
A/H3N2 viruses = test system: A/H3N2 viruses; parameters: species or system influenza A/H3N2 virus
Type B influenza = test system: Type B influenza; parameters: species or system influenza B virus
A/H1N1 viruses = test system: A/H1N1 viruses; parameters: species or system influenza A/H1N1 virus
pandemic (H1N1) viruses = test system: pandemic (H1N1) viruses; parameters: species or system pandemic influenza A (H1N1) virus
[1] = test system: pandemic (H1N1) 2009 viruses; conditions: cited from earlier work
influenza A viruses = conditions: cited from earlier work

CCOC(=O)C1=C[C@@H](OC(CC)CC)[C@H](NC(C)=O)[C@@H](N)C1 [oseltamivir]
oseltamivir-resistance conferring mutations (A/H3N2 viruses): none of the isolates had any of the reported oseltamivir-resistance conferring mutations
oseltamivir susceptibility by NA gene markers (Type B influenza): all type B isolates were sensitive
Total resistant samples/Total samples (A/H1N1 viruses): 35/38 and 15/23
oseltamivir resistant with H274Y mutation (A/H1N1 viruses): 82%
oseltamivir susceptibility by H274Y allelic discrimination (pandemic (H1N1) viruses): all were sensitive
oseltamivir-resistant viruses detected [1]: less than 1 per cent

NC12CC3CC(CC(C3)C1)C2 [amantadine]
Amantadine resistance (influenza A viruses): 33-100%
